Counter-ions that a name gives are not always drawn.

For this test, the target named is T1, hNaV1.7 (Homo sapiens, UniProt Q15858).
T1 construct: expressed in transfected cells
T1 sequence (Q15858 1-1977 isoform Q15858-3): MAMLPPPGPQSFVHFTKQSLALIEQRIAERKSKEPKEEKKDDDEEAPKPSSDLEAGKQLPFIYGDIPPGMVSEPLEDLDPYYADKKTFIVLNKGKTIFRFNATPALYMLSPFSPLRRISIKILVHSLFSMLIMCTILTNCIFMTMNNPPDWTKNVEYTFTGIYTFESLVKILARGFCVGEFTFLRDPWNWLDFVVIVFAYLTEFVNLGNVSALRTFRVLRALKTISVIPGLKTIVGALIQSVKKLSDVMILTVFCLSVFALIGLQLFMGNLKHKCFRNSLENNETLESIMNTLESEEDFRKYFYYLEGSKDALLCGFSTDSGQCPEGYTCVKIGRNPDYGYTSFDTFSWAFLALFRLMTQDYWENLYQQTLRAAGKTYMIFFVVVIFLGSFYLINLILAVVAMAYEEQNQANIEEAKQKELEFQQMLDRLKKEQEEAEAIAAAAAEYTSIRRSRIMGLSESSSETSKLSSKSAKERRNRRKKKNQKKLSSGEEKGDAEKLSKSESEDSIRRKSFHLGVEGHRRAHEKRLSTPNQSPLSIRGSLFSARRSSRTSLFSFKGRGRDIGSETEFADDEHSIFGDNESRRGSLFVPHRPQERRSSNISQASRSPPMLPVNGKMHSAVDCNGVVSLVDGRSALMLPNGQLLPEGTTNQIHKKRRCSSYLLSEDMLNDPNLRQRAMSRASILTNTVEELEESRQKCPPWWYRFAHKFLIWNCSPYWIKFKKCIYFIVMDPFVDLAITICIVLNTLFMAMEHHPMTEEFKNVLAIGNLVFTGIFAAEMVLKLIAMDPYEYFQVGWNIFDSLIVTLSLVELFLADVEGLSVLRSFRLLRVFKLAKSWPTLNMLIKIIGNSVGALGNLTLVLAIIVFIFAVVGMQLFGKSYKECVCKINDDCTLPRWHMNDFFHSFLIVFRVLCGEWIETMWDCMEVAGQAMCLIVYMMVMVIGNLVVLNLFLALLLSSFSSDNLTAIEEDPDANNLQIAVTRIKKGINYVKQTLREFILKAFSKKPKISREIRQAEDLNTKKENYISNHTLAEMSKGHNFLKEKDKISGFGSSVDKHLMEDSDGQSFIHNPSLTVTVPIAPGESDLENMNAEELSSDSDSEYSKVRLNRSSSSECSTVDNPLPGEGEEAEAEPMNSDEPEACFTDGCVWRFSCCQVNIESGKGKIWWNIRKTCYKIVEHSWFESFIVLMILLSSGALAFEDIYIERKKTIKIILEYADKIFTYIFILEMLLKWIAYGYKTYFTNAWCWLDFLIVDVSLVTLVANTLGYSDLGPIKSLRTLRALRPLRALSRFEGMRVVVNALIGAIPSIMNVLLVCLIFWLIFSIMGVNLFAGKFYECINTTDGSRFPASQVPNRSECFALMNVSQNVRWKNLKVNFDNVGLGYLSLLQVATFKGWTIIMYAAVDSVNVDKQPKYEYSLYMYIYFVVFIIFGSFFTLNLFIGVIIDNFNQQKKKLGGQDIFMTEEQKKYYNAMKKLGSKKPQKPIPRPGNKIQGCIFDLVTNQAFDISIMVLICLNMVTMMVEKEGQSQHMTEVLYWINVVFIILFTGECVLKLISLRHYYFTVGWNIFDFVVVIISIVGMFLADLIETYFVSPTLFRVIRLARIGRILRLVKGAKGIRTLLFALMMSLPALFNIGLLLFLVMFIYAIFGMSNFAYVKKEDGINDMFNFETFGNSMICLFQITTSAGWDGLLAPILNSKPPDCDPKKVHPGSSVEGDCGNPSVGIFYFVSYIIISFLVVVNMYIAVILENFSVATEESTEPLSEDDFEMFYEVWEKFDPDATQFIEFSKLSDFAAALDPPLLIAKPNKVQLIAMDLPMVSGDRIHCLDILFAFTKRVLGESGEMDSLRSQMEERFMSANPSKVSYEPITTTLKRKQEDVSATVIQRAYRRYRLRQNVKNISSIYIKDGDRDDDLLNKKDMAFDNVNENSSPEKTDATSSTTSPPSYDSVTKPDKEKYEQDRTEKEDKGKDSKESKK
As to the kind of experiment: Patch voltage clamp electrophysiology (EP), Syncropatch 384PE, Nav1.7 in CHO cells.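 Further: Nav1.7 stably expressed from cDNA in CHO cells, holding potential of −50 mV kept for the entire experiment.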 The class given is cell-based. To be noted: holding potential −50 mV, inhibition based on 7.5 min compound incubation, read-out: hNaV1.7 EP_SP.
For the compound `COc1ccc(F)cc1-c1nccc2cc(S(=O)(=O)NC(=O)c3cc(Cl)c(OCC4CCCC4)cc3F)ccc12` [Example 72, 5-chloro-4-(cyclopentylmethoxy)-2-fluoro-N-((1-(5-fluoro-2-methoxy-phenyl)isoquinolin-6-yl)sulfonyl)benzamide], the IC50 is 340 nM. The same measure for `COc1cc(F)c(C(=O)NS(=O)(=O)c2ccc(O[C@H]3CC[C@H](c4cccc(C(F)(F)F)c4)C[C@@H]3N(C)C)cc2F)cc1C1CC1` [Example 74, 5-cyclopropyl-N-((4-(((1S,2S,4S)-2-(dimethylamino)-4-(3-(trifluoro-methyl)phenyl)cyclohexyl)oxy)-2-fluorophenyl)sulfonyl)-2-fluoro-4-methoxybenzamide]: 5.5 nM; for `CN(C)[C@H]1C[C@@H](c2cccc(C(F)(F)F)c2)CC[C@@H]1Oc1ccc(S(=O)(=O)NC(=O)c2cc(C3CC3)ccc2F)c(F)c1` [Example 75, 5-cyclopropyl-N-((4-(((1S,2S,4S)-2-(dimethylamino)-4-(3-(trifluoromethyl)-phenyl)cyclohexyl)oxy)-2-fluorophenyl)sulfonyl)-2-fluorobenzamide]: 120 nM; for `CN(C)C1(C)CCCN(c2cc(F)c(S(=O)(=O)NC(=O)c3cc(Cl)c(OCC4CCCC4)cc3F)c(F)c2)C1` (stereo not shown) [Example 76, 5-chloro-4-(cyclopentylmethoxy)-N-((4-(3-(dimethylamino)-3-methylpiperidin-1-yl)-2,6-difluorophenyl)sulfonyl)-2-fluorobenzamide]: 32 nM. Next, `O=C(NS(=O)(=O)c1ccccc1)c1cc(Cl)c(OCC2CCCC2)cc1F` [Example 78, 5-chloro-4-(cyclopentylmethoxy)-2-fluoro-N-(phenylsulfonyl)benzamide]: 100 nM; `O=C(NS(=O)(=O)c1c(F)cccc1F)c1cc(Cl)c(OCC2CCCC2)cc1F` [Example 79, 5-chloro-4-(cyclopentylmethoxy)-N-((2,6-difluorophenyl)sulfonyl)-2-fluorobenzamide]: 100 nM. Next, `O=C(NS(=O)(=O)c1cc(Cl)ccc1F)c1cc(Cl)c(OCC2CCCC2)cc1F` [Example 80, 5-chloro-N-((5-chloro-2-fluorophenyl)sulfonyl)-4-(cyclopentylmethoxy)-2-fluorobenzamide]: 700 nM; `COc1ccc(S(=O)(=O)NC(=O)c2cc(Cl)c(OCC3CCCC3)cc2F)cc1` [Example 81, 5-chloro-4-(cyclopentylmethoxy)-2-fluoro-N-((4-methoxyphenyl)sulfonyl)-benzamide]: 140 nM; `O=C(NS(=O)(=O)C1CCCCC1)c1cc(Cl)c(OCC2CCCC2)cc1F` [Example 82, 5-chloro-N-(cyclohexylsulfonyl)-4-(cyclopentylmethoxy)-2-fluorobenzamide]: 30 nM. On to `O=C(NS(=O)(=O)c1ccc(OCc2ccccc2)cc1)c1cc(C2CC2)c(OCC2CCCC2)cc1F` [Example 83, N-((4-(benzyloxy)phenyl)sulfonyl)-4-(cyclopentylmethoxy)-5-cyclopropyl-2-fluorobenzamide], for which the IC50 turned out to be 92 nM.

`O=C(NS(=O)(=O)c1ccc(NCc2ccccc2)cc1)c1cc(Cl)c(OCC2CCCC2)cc1F` [Example 84, N-((4-(benzylamino)phenyl)sulfonyl)-5-chloro-4-(cyclopentylmethoxy)-2-fluorobenzamide]: the IC50 was found to be 690 nM.

Consider `O=C(NS(=O)(=O)c1ccc(OCc2ccncc2)cc1)c1cc(Cl)c(OCC2CCCC2)cc1F` [Example 85, 5-chloro-4-(cyclopentylmethoxy)-2-fluoro-N-((4-(pyridin-4-ylmethoxy)-phenyl)sulfonyl)benzamide], for which the IC50 turned out to be 16 nM. Next, `CO[C@H]1CC[C@H](S(=O)(=O)NC(=O)c2cc(Cl)c(OCC3CCCC3)cc2F)CC1` [Example 86, trans-5-chloro-4-(cyclopentylmethoxy)-2-fluoro-N-((4-methoxycyclohexyl)sulfonyl)benzamide]: 100 nM; `CO[C@H]1CC[C@@H](S(=O)(=O)NC(=O)c2cc(Cl)c(OCC3CCCC3)cc2F)CC1` [Example 87, cis-5-chloro-4-(cyclopentylmethoxy)-2-fluoro-N-((4-methoxycyclohexyl)sulfonyl)benzamide]: 390 nM; `CN(C)[C@H]1CCCC[C@@H]1Oc1ccc(S(=O)(=O)Nc2noc3cc(OCC4CCCC4)c(C4CC4)cc23)c(F)c1` [Example 89, N-(6-(cyclopentylmethoxy)-5-cyclopropylbenzo[d]isoxazol-3-yl)-4-(((1S,2S)-2-(dimethylamino)cyclohexyl)oxy)-2-fluorobenzenesulfonamide]: 340 nM. As to `CN(C)[C@H]1CCCC[C@@H]1Nc1ccc(S(=O)(=O)Nc2nc3ncc(Br)cc3s2)c(F)c1` [Example 95, N-(6-bromothiazolo[4,5-b]pyridin-2-yl)-4-(((1S,2S)-2-(dimethylamino)-cyclohexyl)amino)-2-fluorobenzenesulfonamide], the IC50 came out at 170 nM. Next, `CN(C)[C@H]1CCCC[C@@H]1Nc1ccc(S(=O)(=O)Nc2nc3ccc(OCC4CCCC4)cc3s2)c(F)c1` [Example 96, N-(6-(cyclopentylmethoxy)benzo[d]thiazol-2-yl)-4-(((1S,2S)-2-(dimethyl-amino)cyclohexyl)-amino)-2-fluorobenzenesulfonamide formate]: 8.8 nM; `CN(C)[C@H]1CCCC[C@@H]1Oc1ccc(S(=O)(=O)Nc2nc3ccc(OCC4CCCC4)cc3s2)c(F)c1` [Example 97, N-(6-(cyclopentylmethoxy)benzo[d]thiazol-2-yl)-4-(((1S,2S)-2-(dimethyl-amino)cyclohexyl)oxy)-2-fluorobenzenesulfonamide]: 20 nM; `CN(C)[C@H]1CCCC[C@@H]1Oc1ccc(S(=O)(=O)Nc2nc3cccc(Cl)c3s2)c(F)c1` [Example 99, N-(7-chlorobenzo[d]thiazol-2-yl)-4-(((1S,2S)-2-(dimethylamino)cyclohexyl)-oxy)-2-fluorobenzenesulfonamide]: 430 nM. As for `CN(C)[C@H]1CCCC[C@@H]1Nc1cc(F)c(S(=O)(=O)Nc2ccc(OCCC3(C(F)(F)F)CC3)cn2)cc1Cl` [Example 101, 5-chloro-4-(((1S,2S)-2-(dimethylamino)cyclohexyl)amino)-2-fluoro-N-(5-(2-(1-(trifluoromethyl)cyclopropyl)ethoxy)pyridin-2-yl)benzenesulfonamide], the IC50 was found to be 480 nM. The same measure for `CC(C)/C=C/c1cc2cnc(NS(=O)(=O)c3cc(Cl)c(N[C@H]4CCCC[C@@H]4N(C)C)cc3F)cc2n1C` [Example 102, 5-chloro-4-(((1S,2S)-2-(dimethylamino)cyclohexyl)amino)-2-fluoro-N-(1-methyl-2-((E)-3-methylbut-1-en-1-yl)-1H-pyrrolo[3,2-c]pyridin-6-yl)benzenesulfonamide]: 650 nM. The same measure for `CN(C)[C@H]1CCCC[C@@H]1Nc1cc(F)c(S(=O)(=O)Nc2ccc(OCCCc3ccc(C(F)(F)F)cc3)cn2)cc1Cl` [Example 103, 5-chloro-4-(((1S,2S)-2-(dimethylamino)cyclohexyl)amino)-2-fluoro-N-(5-(3-(4-(trifluoromethyl)phenyl)propoxy)pyridin-2-yl) benzenesulfonamide]: 220 nM; for `O=C(N[C@@H](C(=O)O)C1CCCCC1)c1cc(Cl)c(OCC2CCCC2)cc1F` [Example 107, (R)-2-(5-chloro-4-(cyclopentylmethoxy)-2-fluorobenzamido)-2-cyclohexyl-acetic acid]: 990 nM.

For the compound `COc1ccc2nc(NS(=O)(=O)c3ccc(N[C@H]4CCCC[C@@H]4N(C)C)cc3F)sc2c1` [Example 201, 4-(((1S,2S)-2-(dimethylamino)cyclohexyl)amino)-2-fluoro-N-(6-methoxybenzo[d]thiazol-2-yl)benzenesulfonamide], the IC50 turned out to be 370 nM. The same measure for `CN(C)[C@H]1CCCC[C@@H]1Nc1cc(F)c(S(=O)(=O)Nc2nc3ccc(OCC4CCCC4)cc3s2)cc1Cl` [Example 202, 5-chloro-N-(6-(cyclopentylmethoxy)benzo[d]thiazol-2-yl)-4-(((1S,2S)-2-(dimethylamino)cyclohexyl)amino)-2-fluorobenzenesulfonamide]: 22 nM; for `CN(C)[C@H]1CCCC[C@@H]1Nc1cc(F)c(S(=O)(=O)NC(=O)c2cc(C3CC3)c(OCC3CCCC3)cc2F)c(F)c1` [Example 204, 4-(cyclopentylmethoxy)-5-cyclopropyl-N-((4-(((1S,2S)-2-(dimethylamino)cyclohexyl)amino)-2,6-difluorophenyl)sulfonyl)-2-fluorobenzamide]: 10 nM; for `CN(C)C1CCCN(c2ccc(S(=O)(=O)NC(=O)c3cc(Cl)c(OCC4CCCC4)cc3F)c(F)c2)C1` (stereo not shown) [Example 205, 5-chloro-4-(cyclopentylmethoxy)-N-((4-(3-(dimethylamino)piperidin-1-yl)-2-fluorophenyl)sulfonyl)-2-fluorobenzamide]: 39 nM. Next, `CN(C)[C@H]1CCCC[C@@H]1Nc1cc(F)c(S(=O)(=O)NC(=O)c2cc(Cl)c(OCC3CCCC3)cc2F)c(F)c1` [Example 206, 5-chloro-4-(cyclopentylmethoxy)-N-((4-(((1S,2S)-2-(dimethylamino)-cyclohexyl)amino)-2,6-difluorophenyl)sulfonyl)-2-fluorobenzamide]: 50 nM; `O=C(NS(=O)(=O)c1ccc(NC2CCCCC2)cc1F)c1cc(Cl)c(OCC2CCCC2)cc1F` [Example 208, 5-chloro-N-((4-(cyclohexylamino)-2-fluorophenyl)sulfonyl)-4-(cyclopentylmethoxy)-2-fluorobenzamide]: 880 nM. The same measure for `CNC1CN(S(=O)(=O)NC(=O)c2cc(Cl)c(OCC3CCCC3)cc2F)C1` [Example 226, 5-chloro-4-(cyclopentylmethoxy)-2-fluoro-N-((3-(methylamino)azetidin-1-yl)sulfonyl)benzamide formate]: 750 nM; for `O=C(NS(=O)(=O)N1CCCCCC1)c1cc(Cl)c(OCC2CCCC2)cc1F` [Example 227, N-(azepan-1-ylsulfonyl)-5-chloro-4-(cyclopentylmethoxy)-2-fluorobenzamide]: 20 nM.

The record behind these values is US20240228463A1, “SODIUM CHANNEL INHIBITORS AND METHODS OF DESIGNING SAME” (Genentech, Inc., priority 2021, published 2024).
